One test concerns the target IDH1 R132H (Homo sapiens, UniProt O75874, R132H). The test is described as follows: IDH1 R132H enzymatic assay (NADPH depletion coupled to diaphorase/resazurin). It is filed as biochemical.
The next test has as its target IDH1 R132C (Homo sapiens, UniProt O75874, R132C). Description: IDH1 R132C enzymatic assay (NADPH depletion coupled to diaphorase/resazurin). The test is classed as biochemical. In short, it runs like this:
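NADPH depletion, read via diaphorase/resazurin coupling, after adding substrate at 0.6 mM α-KG and 0.012 mM NADPH. Beforehand, 0.00032 mg/mL enzyme sat with compound 30 min at room temperature in pH 6.5 potassium phosphate buffer with MgCl2, glycerol and BSA.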

The mark [1] stands for this setting: IDH1 R132H enzymatic inhibition, IC50 class.
Setting [2] is: IDH1 R132C enzymatic inhibition, IC50 class.
Setting [3] is: enzymatic inhibition, IDH1 R132H.
[4] abbreviates: enzymatic inhibition, IDH1 R132C.

IDH1 R132H, sequence (O75874 whole entry R132H): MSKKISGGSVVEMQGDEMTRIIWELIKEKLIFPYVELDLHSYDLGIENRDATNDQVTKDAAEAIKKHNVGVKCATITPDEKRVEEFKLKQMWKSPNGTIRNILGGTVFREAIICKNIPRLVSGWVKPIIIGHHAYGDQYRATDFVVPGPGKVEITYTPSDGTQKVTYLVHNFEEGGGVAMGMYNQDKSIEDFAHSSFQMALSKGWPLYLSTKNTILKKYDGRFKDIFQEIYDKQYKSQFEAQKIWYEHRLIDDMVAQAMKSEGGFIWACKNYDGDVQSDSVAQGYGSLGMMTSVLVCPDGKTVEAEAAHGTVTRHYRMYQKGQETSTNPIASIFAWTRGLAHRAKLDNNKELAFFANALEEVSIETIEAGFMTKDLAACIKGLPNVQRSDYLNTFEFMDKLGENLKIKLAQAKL
IDH1 R132C, sequence (O75874 whole entry R132C): as the sequence (O75874 whole entry R132H) above, with H132C counted along it

Take `CCc1ncc(F)cc1-n1c(C=C(C)C)c(C(=O)N2CCNCC2)cc(-c2nc(-c3ccc(C(F)(F)F)nc3)cs2)c1=O` [Compound 315]: the IC50 at IDH1 R132H (setting [1]) was in the range of 300 to 1000 nM; at IDH1 R132C (setting [2]) it was 1000 to 5000 nM.

Regarding `CCc1ccc(Cl)cc1-n1c(C=C(C)C)c(C(=O)N2CCNCC2)cc(-c2nc(-c3ccc(C(F)(F)F)nc3)cs2)c1=O` [Compound 491], the IC50 on IDH1 R132H (setting [3]) and at IDH1 R132C (setting [4]) was less than 300 nM each time.

On to `CCc1cccc(CC)c1-n1c2c(cc(-c3nc(-c4cccc(O)c4)cs3)c1=O)C(=O)CC(C)(C)C2` [Compound 249], for which the IC50 on IDH1 R132H (setting [1]) and on IDH1 R132C (setting [2]) was 1000 to 5000 nM throughout.

On to `CCc1cccc(CC)c1-n1c(C)c(C(=O)NC2CCNCC2)cc(-c2nc(-c3ccc(Cl)cc3)cs2)c1=O` [Compound 302], for which the IC50 on IDH1 R132H (setting [1]) and against IDH1 R132C (setting [2]) was 300 to 1000 nM throughout.

In the case of `CCc1cccc(CC)c1-n1c(CCC(F)(F)F)c(C(=O)N2CCNCC2)cc(-c2nc(-c3ccc(Cl)cc3)cs2)c1=O` [Compound 373], the half-inhibitory concentration (IC50) against IDH1 R132H (setting [1]) and on IDH1 R132C (setting [2]) was 300 to 1000 nM in each case.

Turning to `COc1ccc(OC)c(-n2c3c(cc(-c4nc(-c5ccc(Cl)cc5)cs4)c2=O)C(=O)N(C(=O)OC(C)(C)C)CC3)c1` [Compound 23], the IC50 at IDH1 R132H (setting [1]) was greater than 20000 nM; against IDH1 R132C (setting [2]), 5000 to 20000 nM.

For `COc1ccc(OC)c(-n2c(=O)c(-c3nc(-c4ccc(Cl)cc4)cs3)cc3c(O)cncc32)c1` [Compound 190], the IC50 on IDH1 R132H (setting [1]) and on IDH1 R132C (setting [2]) was greater than 20000 nM throughout.

`CC1(C)CC(=O)c2cc(-c3nc(-c4ccc(Cl)cc4)cs3)c(=O)n(-c3ccc(Cl)cc3Cl)c2C1` [Compound 441]: the IC50 was greater than 20000 nM at IDH1 R132H (setting [3]) and 5000 to 20000 nM at IDH1 R132C (setting [4]).

As to `COc1ncc(C)cc1-n1c(C=C(C)C)c(C(=O)N2CCNCC2)cc(-c2ccn(-c3ccc(C(F)(F)F)cc3)n2)c1=O` [Compound 541], the IC50 against IDH1 R132H (setting [3]) was less than 300 nM; against IDH1 R132C (setting [4]), 1000 to 5000 nM.

`COc1cccc(F)c1-n1c2c(cc(-c3nc(-c4ccc(Cl)cc4)cs3)c1=O)C(=O)CC(C)(C)C2` [Compound 668]: the IC50 at IDH1 R132H (setting [1]) and on IDH1 R132C (setting [2]) was 1000 to 5000 nM throughout.

Consider `CCc1cccc(CC)c1-n1c(C=C(C)C)c(C(=O)N2CCNC(=O)C2(C)C)cc(-c2nc(-c3ccc(Cl)cc3)cs2)c1=O` [Compound 650], for which the IC50 on IDH1 R132H (setting [1]) and against IDH1 R132C (setting [2]) was less than 300 nM throughout.

As to `CCc1cccc(CC)c1-n1c(CC(C)C)c(C(=O)N2CC(C(=O)O)NCC2C)cc(-c2nc(-c3ccc(Cl)cc3)cs2)c1=O` (centres unmarked) [Compound 206], the figures for the IC50 against IDH1 R132H (setting [1]) and at IDH1 R132C (setting [2]) were 300 to 1000 nM and less than 300 nM, respectively.

On to `CCc1cccc(CC)c1-n1c(CC(C)C)c(C(=O)N2CCNCC2)cc(-c2nc(-c3ccc(Cl)cc3Cl)c(C)s2)c1=O` [Compound 637], for which the IC50 against IDH1 R132H (setting [1]) and against IDH1 R132C (setting [2]) was 300 to 1000 nM throughout.

As to `CCc1cccc(CC)c1-n1c(C)c(C(=O)NCC(N)=O)cc(-c2nc(-c3ccc(Cl)cc3)cs2)c1=O` [Compound 260], the IC50 against IDH1 R132H (setting [1]) and at IDH1 R132C (setting [2]) was 1000 to 5000 nM throughout.

With `CNc1ccccc1-n1c2c(cc(-c3nc(-c4ccc(Cl)cc4)cs3)c1=O)C(=O)CC(C)(C)C2` [Compound 42], the IC50 against IDH1 R132H (setting [1]) and at IDH1 R132C (setting [2]) was 1000 to 5000 nM throughout.

On to `COc1ccncc1-n1c2c(cc(-c3nc(-c4ccc(Cl)cc4)cs3)c1=O)C(=O)CC(C)(C)C2` [Compound 436], for which the IC50 against IDH1 R132H (setting [3]) was greater than 20000 nM; on IDH1 R132C (setting [4]), 5000 to 20000 nM.

Take `CCc1cccc(CC)c1-n1c(CC(C)C)c(C(=O)N[C@@H]2CCC[C@@H]2O)cc(-c2nc(-c3ccc(Cl)cc3)cs2)c1=O` [Compound 187]: the IC50 against IDH1 R132H (setting [1]) and against IDH1 R132C (setting [2]) was 300 to 1000 nM in each case.

On to `COc1ccc(OC)c(-n2c3c(cc(-c4nc(-c5ccc(Cl)cc5)cs4)c2=O)C(=O)CN(C)C3)c1` [Compound 253], for which the half-maximal inhibitory concentration (IC50) against IDH1 R132H (setting [1]) and at IDH1 R132C (setting [2]) was 1000 to 5000 nM throughout.

As to `CCc1cccc(CC)c1-n1c(CC(C)C)c(C(=O)N2CCNCC2)cc(-c2nc(/C=C/c3ccc(Cl)cc3)c(C)s2)c1=O` [Compound 555], the values for the IC50 at IDH1 R132H (setting [3]) and at IDH1 R132C (setting [4]) were 1000 to 5000 nM and 300 to 1000 nM, respectively.

Turning to `CC(C)=Cc1c(C(=O)N2CCNCC2)cc(-c2nc(-c3ccc(Cl)cc3)cs2)c(=O)n1-c1cc(F)cnc1OC(C)C` [Compound 316], the concentration for half-maximal inhibition (IC50) at IDH1 R132H (setting [1]) and on IDH1 R132C (setting [2]) was less than 300 nM in each case.

`CCc1ccc(Cl)c(CC)c1-n1c(C)c(C(=O)N2CCNCC2)cc(-c2nc(-c3ccc(Cl)cc3)cs2)c1=O` [Compound 600]: the IC50 was 300 to 1000 nM on IDH1 R132H (setting [3]) and 1000 to 5000 nM against IDH1 R132C (setting [4]).

Consider `CCc1cccc(CC)c1-n1c(C)c(C(=O)NCC(C)(C)C)cc(-c2nc(-c3ccc(Cl)cc3)cs2)c1=O` [Compound 146], for which the IC50 against IDH1 R132H (setting [1]) is greater than 20000 nM; against IDH1 R132C (setting [2]), 1000 to 5000 nM.

The values are drawn from patent US10703746B2, “Mutant IDH1 inhibitors useful for treating cancer” (THE UNITED STATES OF AMERICA, AS REPRESENTED BY THE …, priority 2014, dated 2020).
